d = 2'-deoxy (DNA); r = 2'-OH (RNA)
Tested on: LHPP gene
Assay: High-throughput screening of saRNAs targeting LHPP promoter: LHPP mRNA by one-step RT-qPCR in Huh7 cells
Format: cell-based, human
Conditions: 10 nM saRNA, 72 hours, relative to control (Mock)
Method: Human liver cancer cell line Huh7 was cultured in DMEM medium (Gibco), containing 10% of calf serum (Sigma-Aldrich) and 1% of penicillin/streptomycin (Gibco). The cells were cultured at 5% CO2 and 37° C. According to the instructions provided by the manufacturer, RNAiMax (Invitrogen, Carlsbad, Calif.) was used to transfect small activating RNAs at a concentration of 10 nM (unless otherwise specified).
At the end of transfection, the media were discarded, and each well was washed with 150 μL of PBS once. After discarding the PBS, 50 μL of cell lysis buffer (Takara) was added to each well and incubated at room temperature for 5 min. 1 μL of the resulted cell lysis was taken from each well and analyzed by qPCR on an ABI 7500 fast real-time PCR system (Applied Biosystems) using a one-step TB Green™ PrimeScrip™ RT-PCR kit II (Takara, RR086A) Each transfection sample was repeatedly amplified in 3 replicate wells.
Reaction conditions were as follows: reverse transcription reaction (stage 1): 5 min at 42° C., 10 s at 95° C.; PCR reaction (stage 2): 5 s at 95° C., 20 s at 60° C., 45 cycles of amplification. HPRT1 and TBP were used as internal reference genes. PCR primers used for amplifying LHPP, HPRT1 and TBP genes are shown in Table 2, wherein LHPP was amplified using the LHPP F1/R1 primer pair.
To calculate the relative expression level (Erel) of LHPP (target gene) in an saRNA-transfected sample relative to control treatment (Mock), the Ct values of the target gene and the two internal reference genes were substituted into formula 1
Erel=2^(CtT^m^-CtT^s^)/((2^(CtR1^m^-CtR1^s^)*2^(CtR2^m^-CtR2^s^))^(1/2))
wherein CtTm was the Ct value of the target gene from the control (Mock) sample; CtTs was the Ct value of the target gene from the saRNA-treated sample; CtR1m was the Ct value of the internal reference gene 1 from the control (Mock) sample; CtR1s was the Ct value of the internal reference gene 1 from the saRNA-treated sample; CtR2m was the Ct value of the internal reference gene 2 from the control (Mock) sample; and CtR2s was the Ct value of the internal reference gene 2 from the saRNA-treated sample.
In order to obtain saRNAs capable of activating LHPP transcription, Huh7 cells were transfected with each of the aforementioned 290 saRNAs with a transfection concentration of 10 nM, and 72 hours later, according to the same method as described above, the cells were lysed and analyzed by one-step RT-qPCR to obtain the relative (compared with the control (Mock)) expression level of LHPP gene for each saRNA-treated sample. […] The observed maximum activation and maximum inhibition is 3.46 fold and 0.49 fold, respectively, saRNAs with activating activity are referred to as activating saRNAs, and the saRNAs with inhibiting activity are referred to as inhibiting saRNAs.

| Substance | Fold of changes in relative LHPP mRNA expression level | Fold of changes in relative LHPP mRNA expression level (log2) |
| --- | --- | --- |
| RAG7-143: saRNA duplex; sense UGCUUUUCCUGCUCUUUGUTT (SEQ ID NO: 102), antisense ACAAAGAGCAGGAAAAGCATT (SEQ ID NO: 266) (sugars from the 5' end r19 d2, backbone not given here) | 1.21 fold | 0.28 log2 |
| RAG7-144: saRNA duplex; sense CUGCUUUUCCUGCUCUUUGTT (SEQ ID NO: 18), antisense CAAAGAGCAGGAAAAGCAGTT (SEQ ID NO: 182) (sugars from the 5' end r19 d2, backbone not given here) | 1.56 fold | 0.64 log2 |
| RAG7-145: saRNA duplex; sense UCUGCUUUUCCUGCUCUUUTT (SEQ ID NO: 9), antisense AAAGAGCAGGAAAAGCAGATT (SEQ ID NO: 173) (sugars from the 5' end r19 d2, backbone not given here) | 1.71 fold | 0.77 log2 |
| RAG7-146: saRNA duplex; sense UUCUGCUUUUCCUGCUCUUTT (SEQ ID NO: 10), antisense AAGAGCAGGAAAAGCAGAATT (SEQ ID NO: 174) (sugars from the 5' end r19 d2, backbone not given here) | 1.69 fold | 0.76 log2 |
| RAG7-147: saRNA duplex; sense UUUCUGCUUUUCCUGCUCUTT (SEQ ID NO: 66), antisense AGAGCAGGAAAAGCAGAAATT (SEQ ID NO: 230) (sugars from the 5' end r19 d2, backbone not given here) | 1.31 fold | 0.39 log2 |
| RAG7-148: saRNA duplex; sense UUUUCUGCUUUUCCUGCUCTT (SEQ ID NO: 67), antisense GAGCAGGAAAAGCAGAAAATT (SEQ ID NO: 231) (sugars from the 5' end r19 d2, backbone not given here) | 1.30 fold | 0.38 log2 |
| RAG7-149: saRNA duplex; sense GUUUUCUGCUUUUCCUGCUTT (SEQ ID NO: 99), antisense AGCAGGAAAAGCAGAAAACTT (SEQ ID NO: 263) (sugars from the 5' end r19 d2, backbone not given here) | 1.22 fold | 0.29 log2 |
| RAG7-150: saRNA duplex; sense UGUUUUCUGCUUUUCCUGCTT (SEQ ID NO: 32), antisense GCAGGAAAAGCAGAAAACATT (SEQ ID NO: 196) (sugars from the 5' end r19 d2, backbone not given here) | 1.48 fold | 0.56 log2 |
| RAG7-151: saRNA duplex; sense UUGUUUUCUGCUUUUCCUGTT (SEQ ID NO: 100), antisense CAGGAAAAGCAGAAAACAATT (SEQ ID NO: 264) (sugars from the 5' end r19 d2, backbone not given here) | 1.22 fold | 0.28 log2 |
| RAG7-160: saRNA duplex; sense CUUAGGGACUUGUUUUCUGTT (SEQ ID NO: 153), antisense CAGAAAACAAGUCCCUAAGTT (SEQ ID NO: 317) (sugars from the 5' end r19 d2, backbone not given here) | 1.11 fold | 0.15 log2 |
| RAG7-162: saRNA duplex; sense UUCUUAGGGACUUGUUUUCTT (SEQ ID NO: 19), antisense GAAAACAAGUCCCUAAGAATT (SEQ ID NO: 183) (sugars from the 5' end r19 d2, backbone not given here) | 1.56 fold | 0.64 log2 |
| RAG7-165: saRNA duplex; sense CCUUUCUUAGGGACUUGUUTT (SEQ ID NO: 152), antisense AACAAGUCCCUAAGAAAGGTT (SEQ ID NO: 316) (sugars from the 5' end r19 d2, backbone not given here) | 1.11 fold | 0.16 log2 |
| RAG7-168: saRNA duplex; sense UGACCUUUCUUAGGGACUUTT (SEQ ID NO: 91), antisense AAGUCCCUAAGAAAGGUCATT (SEQ ID NO: 255) (sugars from the 5' end r19 d2, backbone not given here) | 1.24 fold | 0.31 log2 |
| RAG7-169: saRNA duplex; sense UUGACCUUUCUUAGGGACUTT (SEQ ID NO: 61), antisense AGUCCCUAAGAAAGGUCAATT (SEQ ID NO: 225) (sugars from the 5' end r19 d2, backbone not given here) | 1.34 fold | 0.42 log2 |
| RAG7-170: saRNA duplex; sense UUUGACCUUUCUUAGGGACTT (SEQ ID NO: 132), antisense GUCCCUAAGAAAGGUCAAATT (SEQ ID NO: 296) (sugars from the 5' end r19 d2, backbone not given here) | 1.16 fold | 0.21 log2 |
| RAG7-171: saRNA duplex; sense CUUUGACCUUUCUUAGGGATT (SEQ ID NO: 80), antisense UCCCUAAGAAAGGUCAAAGTT (SEQ ID NO: 244) (sugars from the 5' end r19 d2, backbone not given here) | 1.27 fold | 0.34 log2 |
| RAG7-172: saRNA duplex; sense CCUUUGACCUUUCUUAGGGTT (SEQ ID NO: 81), antisense CCCUAAGAAAGGUCAAAGGTT (SEQ ID NO: 245) (sugars from the 5' end r19 d2, backbone not given here) | 1.27 fold | 0.34 log2 |
| RAG7-174: saRNA duplex; sense UGCCUUUGACCUUUCUUAGTT (SEQ ID NO: 49), antisense CUAAGAAAGGUCAAAGGCATT (SEQ ID NO: 213) (sugars from the 5' end r19 d2, backbone not given here) | 1.38 fold | 0.47 log2 |
| RAG7-175: saRNA duplex; sense UUGCCUUUGACCUUUCUUATT (SEQ ID NO: 60), antisense UAAGAAAGGUCAAAGGCAATT (SEQ ID NO: 224) (sugars from the 5' end r19 d2, backbone not given here) | 1.34 fold | 0.42 log2 |
| RAG7-176: saRNA duplex; sense UUUGCCUUUGACCUUUCUUTT (SEQ ID NO: 110), antisense AAGAAAGGUCAAAGGCAAATT (SEQ ID NO: 274) (sugars from the 5' end r19 d2, backbone not given here) | 1.20 fold | 0.26 log2 |

From patent US20220096516A1, “OLIGONUCLEOTIDE MOLECULE AND APPLICATION THEREOF IN TUMOR THERAPY” (Ractigen Therapeutics, priority 2019, published 2022)
